From PMC4052451 (Journal of medicinal chemistry, 2013)
*: point of attachment. Dnp = O=[N+]([O-])c1ccc(*)c([N+](=O)[O-])c1; Mca = COc1ccc2c(CC(=O)*)cc(=O)oc2c1

How the values were obtained:
C-domain of sACE-1 = C-domain of sACE-1 (Homo sapiens, UniProt P12821); assay: Reversible inhibition of the C-domain of sACE-1, fluorogenic substrate Abz-LFK; assay type: biochemical; details: Abz-LFK(Dnp)-OH 7.5, 10, 15 µM; absence of co-reactants
N-domain of sACE-1 = N-domain of sACE-1 (Homo sapiens, UniProt P12821); assay: Reversible inhibition of the N-domain of sACE-1, fluorogenic substrate Abz-SDK; assay type: biochemical; details: Abz-SDK(Dnp)P-OH 7.5, 10, 15 µM; absence of co-reactants
N-domain of sACE-1, sequence (P12821 30-1261): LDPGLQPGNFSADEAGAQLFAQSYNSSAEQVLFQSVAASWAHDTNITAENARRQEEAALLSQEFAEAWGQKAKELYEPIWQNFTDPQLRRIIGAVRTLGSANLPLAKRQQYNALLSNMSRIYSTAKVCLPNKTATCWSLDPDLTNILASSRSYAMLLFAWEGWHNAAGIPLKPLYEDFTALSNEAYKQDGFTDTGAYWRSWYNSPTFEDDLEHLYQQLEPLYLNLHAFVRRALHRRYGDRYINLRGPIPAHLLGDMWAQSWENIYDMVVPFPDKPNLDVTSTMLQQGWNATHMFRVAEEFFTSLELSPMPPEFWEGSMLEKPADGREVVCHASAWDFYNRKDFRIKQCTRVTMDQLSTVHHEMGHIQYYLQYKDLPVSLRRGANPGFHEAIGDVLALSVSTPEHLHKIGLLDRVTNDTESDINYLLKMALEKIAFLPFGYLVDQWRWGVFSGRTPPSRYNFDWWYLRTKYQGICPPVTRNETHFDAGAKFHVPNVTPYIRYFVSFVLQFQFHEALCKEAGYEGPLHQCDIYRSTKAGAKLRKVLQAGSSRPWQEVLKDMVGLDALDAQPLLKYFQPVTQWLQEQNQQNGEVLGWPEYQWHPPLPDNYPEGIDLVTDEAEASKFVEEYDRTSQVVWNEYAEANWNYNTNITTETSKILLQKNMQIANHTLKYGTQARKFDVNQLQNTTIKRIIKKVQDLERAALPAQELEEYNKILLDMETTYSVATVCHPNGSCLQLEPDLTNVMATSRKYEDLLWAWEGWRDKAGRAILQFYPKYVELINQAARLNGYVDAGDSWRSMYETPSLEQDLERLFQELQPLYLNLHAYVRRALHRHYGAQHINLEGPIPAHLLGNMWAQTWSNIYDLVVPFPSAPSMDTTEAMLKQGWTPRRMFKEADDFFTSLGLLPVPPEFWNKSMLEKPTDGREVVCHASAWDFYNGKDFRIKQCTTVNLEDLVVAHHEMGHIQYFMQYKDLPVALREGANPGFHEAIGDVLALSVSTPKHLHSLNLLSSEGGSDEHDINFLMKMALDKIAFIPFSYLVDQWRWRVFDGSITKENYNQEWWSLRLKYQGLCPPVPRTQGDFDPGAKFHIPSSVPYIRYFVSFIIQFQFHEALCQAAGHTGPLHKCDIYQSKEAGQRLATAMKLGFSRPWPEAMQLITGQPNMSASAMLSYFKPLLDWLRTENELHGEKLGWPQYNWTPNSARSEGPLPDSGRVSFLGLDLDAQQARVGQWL

[1] = ref [15],[24]; cited from earlier work
ACE = details: ref [38]; cited from earlier work
[2] = in SHR; ref [38]; cited from earlier work
sACE-1 = sACE-1 (Homo sapiens, UniProt P12821); details: generic substrate of previous study; ref [30]; cited from earlier work
sACE-1, sequence (P12821 30-1261): as above

C-domain of sACE-1, sequence (P12821 30-1261): as above

## NCCCC[C@H](N[C@@H](CCc1ccccc1)C(=O)O)C(=O)N1CCC[C@H]1C(=O)O [Lisinopril]
C-domain of sACE-1
  Inhibition mode by Dixon plot (C-domain): competitive inhibitors
N-domain of sACE-1
  Inhibition mode by Dixon plot (N-domain): competitive inhibitors

## Ac-Asp-(L)Pheψ(PO2-CH2)(L)Ala-Ala-NH2 [RXP407]
[1]
  Effect on blood pressure regulation: no effect on blood pressure regulation

## Ile-Pro-Pro
ACE
  IC50: 5 µM
[2]
  lowers blood pressure: ≤ 30 mmHg

## Mca-RPPGFSAFK(Dnp)-OH (SMILES COc1ccc2c(CC(=O)N[C@@H](CCCNC(=N)N)C(=O)N3CCC[C@H]3C(=O)N3CCC[C@H]3C(=O)NCC(=O)N[C@@H](Cc3ccccc3)C(=O)N[C@@H](CO)C(=O)N[C@@H](C)C(=O)N[C@@H](Cc3ccccc3)C(=O)N[C@@H](CCCCNc3ccc([N+](=O)[O-])cc3[N+](=O)[O-])C(=O)O)cc(=O)oc2c1)
sACE-1
  Km: 4.5 ± 0.6 µM
  kcat: 20.33 ± 0.833 s⁻¹
